Patent publication US11084800B2 (Achillion Pharmaceuticals, Inc., priority 2017, dated 2021)

The compounds below were run against Human Factor D (Homo sapiens (Human), UniProt P00746) (assay: Human Factor D Assay). Settings: Factor D inhibition, assay of Example 10; read-out: IC5 (Stars).
Type: biochemical
Method in brief: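 Serum-purified Factor D (80 nM final) preincubated 5 min at room temperature with compound in 50 mM Tris, 1 M NaCl, pH 7.5. Z-L-Lys-SBz and DTNB added at 100 μM each; A405 followed every 30 s for 30 min. IC50 from nonlinear regression of rates versus concentration.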

Human Factor D, sequence (P00746 26-253): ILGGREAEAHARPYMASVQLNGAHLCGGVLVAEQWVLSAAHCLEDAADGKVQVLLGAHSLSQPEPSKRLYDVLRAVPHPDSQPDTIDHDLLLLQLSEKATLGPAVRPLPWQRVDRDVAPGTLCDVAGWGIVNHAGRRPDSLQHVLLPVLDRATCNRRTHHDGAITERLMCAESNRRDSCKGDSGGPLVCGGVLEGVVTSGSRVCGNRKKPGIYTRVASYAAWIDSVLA

Q: Which IC50 does the source give for `CC(=O)c1nn(CC(=O)N2[C@H](C(=O)Nc3nc(C(F)(F)F)ccc3C)C[C@@]3(CCCN(C)C)C[C@@H]23)c2c(CF)cc(-c3cnc(C)nc3)cc12` [Compound 380, (1R,3S,5R)-2-(2-(3-acetyl-7-(fluoromethyl)-5-(2-methylpyrimidin-5-yl)-1H-indazol-1-yl)acetyl)-5-(3-(dimethylamino)propyl)-N-(3-methyl-6-(trifluoromethyl)pyridin-2-yl)-2-azabicyclo[3.1.0]hexane-3-carboxamide] here?
A: The IC50 was < 1000 nM.

Q: For `COC(=O)[C@@H]1CCCN1C[C@@]12C[C@@H](C(=O)Nc3nc(Br)ccc3C)N(C(=O)Cn3nc(C(C)=O)c4cc(-c5cnc(C)nc5)cc(C)c43)[C@@H]1C2` [Compound 298, methyl (((1R,3S,5R)-2-(2-(3-acetyl-7-methyl-5-(2-methylpyrimidin-5-yl)-1H-indazol-1-yl)acetyl)-3-((6-bromo-3-methylpyridin-2-yl)carbamoyl)-2-azabicyclo[3.1.0]hexan-5-yl)methyl)-L-prolinate], which IC50 is on record?
A: Its IC50 is < 1000 nM.

Q: Which IC50 does the source give for `CC(=O)c1nn(CC(=O)N2[C@H](C(=O)Nc3nc(Br)ccc3C)C[C@@]3(CN(C(C)C)C(C)C)C[C@@H]23)c2c(C)cc(-c3cnc(C)nc3)cc12` [Compound 415, (1R,3S,5R)-2-(2-(3-acetyl-7-methyl-5-(2-methylpyrimidin-5-yl)-1H-indazol-1-yl)acetyl)-N-(6-bromo-3-methylpyridin-2-yl)-5-((diisopropylamino)methyl)-2-azabicyclo[3.1.0]hexane-3-carboxamide] here?
A: Its IC50 is < 1000 nM.

Q: `COC(=O)c1nn(CC(=O)N2[C@H](C(=O)Nc3nc(Br)ccc3C)C[C@@]3(C)C[C@@H]23)c2ccc(-c3cnc(C)nc3)cc12` [Compound 467, Methyl 1-{2-[(1R,3S,5R)-3-[(6-bromo-3-methylpyridin-2-yl)carbamoyl]-5-methyl-2-azabicyclo[3.1.0]hexan-2-yl]-2-oxoethyl}-5-(2-methylpyrimidin-5-yl)indazole-3-carboxylate] was tested. Which IC50 did it give?
A: Its IC50 is < 1000 nM.

Q: `CC(=O)c1nn(CC(=O)N2[C@H](C(=O)Nc3nc(Br)ccc3C)C[C@@]3(CN4CC(C)(C)C4)C[C@@H]23)c2c(C)cc(-c3cnc(C)nc3)cc12` [Compound 350] was tested. Which IC50 did it give?
A: The IC50 was < 1000 nM.

Q: With `CC(=O)c1nn(CC(=O)N2[C@H](C(=O)Nc3nc(Br)ccc3C)C[C@@]3(CN4CC5(CCC5)C4)C[C@@H]23)c2c(CF)cc(-c3cnc(C)nc3)cc12` [Compound 354, (1R,3S,5R)-5-(2-azaspiro[3.3]heptan-2-ylmethyl)-2-(2-(3-acetyl-7-(fluoromethyl)-5-(2-methylpyrimidin-5-yl)-1H-indazol-1-yl)acetyl)-N-(6-bromo-3-methylpyridin-2-yl)-2-azabicyclo[3.1.0]hexane-3-carboxamide] as the compound, how does the IC50 read?
A: The IC50 was < 1000 nM.

Q: Which IC50 does the source give for `CC(=O)c1nn(CC(=O)N2[C@H](C(=O)Nc3nc(Br)ccc3C)C[C@@]3([C@H](O)CO)C[C@@H]23)c2cnc(-c3cnc(C)nc3)cc12` [Compound 282] here?
A: Its IC50 is < 1000 nM.

Q: How did the IC50 turn out when `CC(=O)c1nn(CC(=O)N2[C@H](C(=O)Nc3nc(Br)ccc3CN3C(C)(C)CCCC3(C)C)C[C@@]3(C)C[C@@H]23)c2ccc(-c3cnc(C)nc3)cc12` [Compound 302, (1R,3S,5R)-2-(2-(3-acetyl-5-(2-methylpyrimidin-5-yl)-1H-indazol-1-yl)acetyl)-N-(6-bromo-3-((2,2,6,6-tetramethylpiperidin-1-yl)methyl)pyridin-2-yl)-5-methyl-2-azabicyclo[3.1.0]hexane-3-carboxamide] was run?
A: Its IC50 is < 1000 nM.

Q: With `COc1cc2c(cc1-c1cnc(C)nc1)c(C(C)=O)nn2CC(=O)N1[C@H](C(=O)Nc2nc(Br)ccc2C)C[C@@]2(C)C[C@@H]12` [Compound 394, (1R,3S,5R)-2-(2-(3-acetyl-6-methoxy-5-(2-methylpyrimidin-5-yl)-1H-indazol-1-yl)acetyl)-N-(6-bromo-3-methylpyridin-2-yl)-5-methyl-2-azabicyclo[3.1.0]hexane-3-carboxamide] as the compound, how does the IC50 read?
A: Its IC50 is < 1000 nM.

Q: How did the IC50 turn out when `CC(=O)c1nn(CC(=O)N2[C@H](C(=O)Nc3nc(Br)ccc3CC#N)C[C@@]3(C)C[C@@H]23)c2c(C)cc(-c3cnc(C)nc3)cc12` [Compound 365, (1R,3S,5R)-2-(2-(3-acetyl-7-methyl-5-(2-methylpyrimidin-5-yl)-1H-indazol-1-yl)acetyl)-N-(6-bromo-3-(cyanomethyl)pyridin-2-yl)-5-methyl-2-azabicyclo[3.1.0]hexane-3-carboxamide] was run?
A: The IC50 was < 1000 nM.

Q: With `CC(=O)OCc1cc(-c2cnc(C)nc2)cc2c(C(C)=O)nn(CC(=O)N3[C@H](C(=O)Nc4nc(Br)ccc4C)C[C@@]4(C)C[C@@H]34)c12` [Compound 529, (3-Acetyl-1-(2-((1R,3S,5R)-3-((6-bromo-3-methylpyridin-2-yl)carbamoyl-5-methyl-2-azabicyclo[3.1.0]hexan-2-yl)-2-oxoethyl)-5-(2-methylpyrimidin-5-yl)-1H-indazol-7-yl)methyl acetate] as the compound, how does the IC50 read?
A: Its IC50 is < 1000 nM.

Q: For `COc1cc(-c2cnc(C)nc2)cc2c(C(C)=O)nn(CC(=O)N3[C@H](C(=O)Nc4nc(Br)ccc4C)C[C@@]4(C)C[C@@H]34)c12` [Compound 494, (1R,3S,5R)-2-(2-(3-acetyl-7-methoxy-5-(2-methylpyrimidin-5-yl)-1H-indazol-1-yl)acetyl)-N-(6-bromo-3-methylpyridin-2-yl)-5-methyl-2-azabicyclo[3.1.0]hexane-3-carboxamide], which IC50 is on record?
A: Its IC50 is < 1000 nM.

Same assay, conditions: Table 6; Factor D 80 nM, substrate Z-L-Lys-SBz; read-out: IC50

Q: `CC(=O)c1nn(CC(=O)N2[C@H](C(=O)Nc3nc(Br)ccc3C)C[C@@]3(CN4CCNCC4)C[C@@H]23)c2c(C)cc(-c3cnc(C)nc3)cc12` [Compound 88, (1R,3S,5R)-2-(2-(3-Acetyl-7-methyl-5-(2-methylpyrimidin-5-yl)-1H-indazol-1-yl)acetyl)-N-(6-bromo-3-methylpyridin-2-yl)-5-(piperazin-1-ylmethyl)-2-azabicyclo[3.1.0]hexane-3-carboxamide] was tested. Which IC50 did it give?
A: The IC50 was < 1000 nM.

Q: With `CC(=O)c1nn(CC(=O)N2C3CC3(CN3CCN(C)CC3)C[C@H]2C(=O)Nc2nc(Br)ccc2C)c2ccc(-c3cnc(C)nc3)cc12` (stereo partly drawn) [Compound 24, (3S)-2-(2-(3-Acetyl-5-(2-methylpyrimidin-5-yl)-1H-indazol-1-yl)acetyl)-N-(6-bromo-3-methylpyridin-2-yl)-5-((4-methylpiperazin-1-yl)methyl)-2-azabicyclo[3.1.0]hexane-3-carboxamide] as the compound, how does the IC50 read?
A: The IC50 was < 1000 nM.

Q: How did the IC50 turn out when `CC(=O)c1nn(CC(=O)N2C[C@@](F)(CF)C[C@H]2C(=O)Nc2nc(Br)ccc2C)c2c(C)cc(-c3cnc(C)nc3)cc12` [Compound 66, (2S,4R)-1-(2-(3-Acetyl-7-methyl-5-(2-methylpyrimidin-5-yl)-1H-indazol-1-yl)acetyl)-N-(6-bromo-3-methylpyridin-2-yl)-4-fluoro-4-(fluoromethyl)pyrrolidine-2-carboxamide] was run?
A: The IC50 was < 1000 nM.

Q: With `CC(=O)c1nn(CC(=O)N2C[C@H](F)C[C@H]2C(=O)Nc2cccc(Br)n2)c2c(C(=O)O)cc(-c3cnc(C)nc3)cc12` [Compound 41, 3-acetyl-1-(2-((2S,4R)-2-((6-bromopyridin-2-yl)carbamoyl)-4-fluoropyrrolidin-1-yl)-2-oxoethyl)-5-(2-methylpyrimidin-5-yl)-1H-indazole-7-carboxylic acid] as the compound, how does the IC50 read?
A: Its IC50 is < 1000 nM.

Q: Which IC50 does the source give for `CC(=O)c1nn(CC(=O)N2[C@H]3C[C@@]3(CN(C)C)C[C@H]2C(=O)Nc2nc(Br)ccc2C)c2c(CF)cc(-c3cnc(C)nc3)cc12` [Compound 75, (1S,3S,5S)-2-(2-(3-Acetyl-7-(fluoromethyl)-5-(2-methylpyrimidin-5-yl)-1H-indazol-1-yl)acetyl)-N-(6-bromo-3-methylpyridin-2-yl)-5-((dimethylamino)methyl)-2-azabicyclo[3.1.0]hexane-3-carboxamide] here?
A: The IC50 was < 1000 nM.

Q: With `CC(=O)c1nn(CC(=O)N2[C@H](C(=O)Nc3nc(Br)ccc3C)C[C@@]3(C)C[C@@H]23)c2ccc(-c3cnc(C)nc3)c(F)c12` [Compound 130, (1R,3S,5R)-2-(2-(3-Acetyl-4-fluoro-5-(2-methylpyrimidin-5-yl)-1H-indazol-1-yl)acetyl)-N-(6-bromo-3-methylpyridin-2-yl)-5-methyl-2-azabicyclo[3.1.0]hexane-3-carboxamide] as the compound, how does the IC50 read?
A: Its IC50 is < 1000 nM.

Q: `CC(=O)c1nn(CC(=O)N2[C@H](C(=O)Nc3nc(Br)ccc3C)C[C@@]3(CN(C)C)C[C@@H]23)c2c(C#N)cc(-c3cnc(C)nc3)cc12` [Compound 143, (1R,3S,5R)-2-(2-(3-Acetyl-7-cyano-5-(2-methylpyrimidin-5-yl)-1H-indazol-1-yl)acetyl)-N-(6-bromo-3-methylpyridin-2-yl)-5-((dimethylamino)methyl)-2-azabicyclo[3.1.0]hexane-3-carboxamide] was tested. Which IC50 did it give?
A: Its IC50 is < 1000 nM.

Q: With `CC(=O)c1nn(CC(=O)N2C3CC3(CN3CCNCC3)C[C@H]2C(=O)Nc2nc(Br)ccc2C)c2ccc(-c3cnc(C)nc3)cc12` (stereo partly drawn) [Compound 22, (3S)-2-(2-(3-Acetyl-5-(2-methylpyrimidin-5-yl)-1H-indazol-1-yl)acetyl)-N-(6-bromo-3-methylpyridin-2-yl)-5-(piperazin-1-ylmethyl)-2-azabicyclo[3.1.0]hexane-3-carboxamide] as the compound, how does the IC50 read?
A: The IC50 was < 1000 nM.

Q: With `CC(=O)c1nn(CC(=O)N2[C@H](C(=O)Nc3nc(OC(F)(F)F)ccc3C)C[C@@]3(C)C[C@@H]23)c2ccc(-c3cnc(C)nc3)cc12` [Compound 196, (1R,3S,5R)-2-(2-(3-Acetyl-5-(2-methylpyrimidin-5-yl)-1H-indazol-1-yl)acetyl)-5-methyl-N-(3-methyl-6-(trifluoromethoxy)pyridin-2-yl)-2-azabicyclo[3.1.0]hexane-3-carboxamide] as the compound, how does the IC50 read?
A: Its IC50 is < 1000 nM.

Q: Which IC50 does the source give for `CC(=O)c1nn(CC(=O)N2[C@H]3C[C@@]3(CN3CC4(CCC4)C3)C[C@H]2C(=O)Nc2nc(Br)ccc2C)c2ccc(-c3cnc(C)nc3)cc12` [Compound 68] here?
A: The IC50 was < 1000 nM.

Same assay, conditions: Table 8; Factor D 80 nM, substrate Z-L-Lys-SBz; read-out: IC50

Q: `CC(=O)c1nn(CC(=O)N2[C@H](C(=O)Nc3nc(Br)ccc3C)C[C@@]3(C)C[C@@H]23)c2cnc(-c3cnc(CNC(=O)COCCOCCNC(=O)COCCOCCNC(=O)CC[C@H](NC(=O)CCCCCCCCCCCCCCCCC(=O)O)C(=O)O)nc3)cc12` [Compound 414] was tested. Which IC50 did it give?
A: The IC50 was < 1000 nM.
